The values below come from patent publication US20020026053A1, “Novel 3-(substituted) -2- indolinones compounds and use thereof as inhibitors of protein kinase activity” (priority 1997, published 2002).

One assay has as its system FLK-1 receptor. In words: FLK-1 Assay (cellular/catalytic ELISA, VEGF-stimulated phosphotyrosine). The class given is cell-based. Set-up: concentration or dose not given beside the values. The method, boiled down:
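Receptor phosphotyrosine ELISA: Flk-1-expressing NIH3T3 C7#3 cells, starved overnight in 0.1% FBS medium, received compound (1:200 final dilution, 0.5% DMSO) for 2 h at 37 °C, then VEGF. Anti-FLK-1-captured receptor was probed with anti-phosphotyrosine UB40 and peroxidase/ABTS read-out, relative to cells without compound.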
In general terms: ELISA stands for enzyme-linked immunosorbent assay.

Another assay has as its system PDGF-R. In words: PDGF-R Assay (cellular ELISA, U1242 cells). The class given is cell-based. Details: concentration or dose not given beside the values. The method, boiled down: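 Cellular ELISA for receptor autophosphorylation: after 2 hr test-compound treatment of serum-free U1242 cells at 37°C, ligand is added for 5–10 min, cells are lysed (HNTG) and receptor captured by specific antibody. Anti-phosphotyrosine plus secondary antibody with ABTS colour read at 410/630 nm, compared with compound-free control cells.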

Take `Cc1c(O)ccc(C=C2C(=O)Nc3c(Br)cc(Br)c(C)c32)c1O` [10718/H09]: the “Flk Kinase % Inhibition (P.110)” value with FLK-1 receptor was −5.0%.
Consider `Cc1c(Br)cc(Br)c2c1C(=Cc1ccco1)C(=O)N2` [10718/H10], for which, in the assay on FLK-1 receptor, the “Flk Kinase % Inhibition (P.110)” value turned out to be 1.4%.
Still for that read-out and setting: in the case of `Cc1c(Br)cc(Br)c2c1C(=Cc1ccc([N+](=O)[O-])o1)C(=O)N2` [10718/H11] it was 13.0%; in that of `CCOc1ccc(C=C2C(=O)Nc3c(Br)cc(Br)c(C)c32)cc1OC` [10719/H02], 22.0%.
The same measure, in the same setting: with `Cc1c(Br)cc(Br)c2c1C(=Cc1ccc(O)c(O)c1)C(=O)N2` [10719/H03] the figure was −40.4%.
Same read-out and setting: in the case of `COc1ccc(C=C2C(=O)Nc3c(Br)cc(Br)c(C)c32)c(OC)c1` [10719/H04] it was 3.4%.
Take `CCc1c(C)[nH]c(C=C2C(=O)Nc3c(Br)cc(Br)c(C)c32)c1C` [10719/H05]: the “Flk Kinase % Inhibition (P.110)” value with FLK-1 receptor amounted to 18.5%.
Still for that read-out and setting: in the case of `COc1cc(OC)c(C=C2C(=O)Nc3c(Br)cc(Br)c(C)c32)c(OC)c1` [10719/H06] it was 17.8%.
In the case of `CCN(CC)c1ccc(C=C2C(=O)Nc3c(Br)cc(Br)c(C)c32)c(O)c1` [10734/H05], the “Flk Kinase % Inhibition (P.110)” value with FLK-1 receptor is listed as 1.6%. Further, the “PDGF Kinase % Inhibition (P.119)” value with PDGF-R is listed as −14.4%.
Consider `Cc1c(Br)cc(Br)c2c1C(=Cc1ccc([N+](=O)[O-])cc1)C(=O)N2` [10734/H06], for which the “Flk Kinase % Inhibition (P.110)” value in the assay with FLK-1 receptor was found to be 2.6%. The “PDGF Kinase % Inhibition (P.119)” value in the assay on PDGF-R was −26.3%.
In the same order, the values of `Cc1c(Br)cc(Br)c2c1C(=Cc1cc(Br)cc(Br)c1O)C(=O)N2` [10734/H07] are 1.4% and −6.4%.
For `Cc1c(Br)cc(Br)c2c1C(=Cc1cccc(F)c1O)C(=O)N2` [10734/H08] the same measures were −2.2% and 2.9%.
In the same order, the values of `Cc1c(Br)cc(Br)c2c1C(=Cc1ccc(O)c(Br)c1)C(=O)N2` [10734/H09] are −2.2% and −19.2%.
Regarding `Cc1c(Br)cc(Br)c2c1C(=Cc1ccc(C(C)(C)C)cc1)C(=O)N2` [10734/H10], in the assay on FLK-1 receptor, the “Flk Kinase % Inhibition (P.110)” value worked out at 3.9%. In the assay with PDGF-R, the “PDGF Kinase % Inhibition (P.119)” value is given as −17.9%.
In the same order, the values of `Cc1c(Br)cc(Br)c2c1C(=Cc1ccc(Br)s1)C(=O)N2` [10734/H11] are 9.9% and −17.9%.
In the same order, the values of `Cc1ccccc1C=C1C(=O)Nc2c(Br)cc(Br)cc21` [10735/A02] are −13.4% and 14.3%.
In the same order, the values of `O=C1Nc2c(Br)cc(Br)cc2C1=Cc1ccc(F)c(F)c1` [10735/A03] are −1.0% and 21.9%.
As to `O=C1Nc2c(Br)cc(Br)cc2C1=Cc1cc(F)cc(F)c1` [10735/A04], the “Flk Kinase % Inhibition (P.110)” value with FLK-1 receptor is recorded as −20.8%. Besides, in the assay with PDGF-R, the “PDGF Kinase % Inhibition (P.119)” value was found to be 18.8%.
For `O=C1Nc2c(Br)cc(Br)cc2C1=Cc1cccc(C(F)(F)F)c1` [10735/A05] the same measures were −12.2% and 0.9%.
For `O=C1Nc2c(Br)cc(Br)cc2C1=Cc1cc(C(F)(F)F)cc(C(F)(F)F)c1` [10735/A06] the same measures were −8.5% and 4.7%.
With `N#Cc1ccccc1C=C1C(=O)Nc2c(Br)cc(Br)cc21` [10735/A07], the “Flk Kinase % Inhibition (P.110)” value with FLK-1 receptor was −1.3%. Further, the “PDGF Kinase % Inhibition (P.119)” value with PDGF-R came to 0.5%.
In the same order, the values of `O=C1Nc2c(Br)cc(Br)cc2C1=Cc1c(F)cccc1F` [10735/A08] are −19.6% and 5.3%.
Take `O=C1Nc2c(Br)cc(Br)cc2C1=Cc1cccc2ccccc12` [10735/A09]: in the assay on FLK-1 receptor, the “Flk Kinase % Inhibition (P.110)” value was −6.3%. Besides, in the assay on PDGF-R, the “PDGF Kinase % Inhibition (P.119)” value was determined as 1.9%.
For `O=C1Nc2c(Br)cc(Br)cc2C1=Cc1ccc(Cl)cc1Cl` [10735/A10] the same measures were 2.2% and −0.2%.
Take `O=C1Nc2c(Br)cc(Br)cc2C1=Cc1ccc(-c2ccccc2)cc1` [10735/A11]: the “Flk Kinase % Inhibition (P.110)” value in the assay with FLK-1 receptor is reported as 2.2%. The “PDGF Kinase % Inhibition (P.119)” value with PDGF-R is recorded as 5.7%.
In the same order, the values of `Cc1ccccc1C=C1C(=O)Nc2ccc(I)cc21` [10735/B02] are 1.1% and 22.6%.
For `O=C1Nc2ccc(I)cc2C1=Cc1ccc(F)c(F)c1` [10735/B03], the “Flk Kinase % Inhibition (P.110)” value with FLK-1 receptor is on record as −14.3%. The “PDGF Kinase % Inhibition (P.119)” value in the assay on PDGF-R is 16.4%.
In the same order, the values of `O=C1Nc2ccc(I)cc2C1=Cc1cc(F)cc(F)c1` [10735/B04] are 6.1% and 2.9%.
For `O=C1Nc2ccc(I)cc2C1=Cc1cccc(C(F)(F)F)c1` [10735/B05], the “Flk Kinase % Inhibition (P.110)” value with FLK-1 receptor came to 7.4%. In the assay on PDGF-R, the “PDGF Kinase % Inhibition (P.119)” value is on record as 17.4%.
`O=C1Nc2ccc(I)cc2C1=Cc1cc(C(F)(F)F)cc(C(F)(F)F)c1` [10735/B06]: in the assay with FLK-1 receptor, the “Flk Kinase % Inhibition (P.110)” value is listed as 17.5%. Further, the “PDGF Kinase % Inhibition (P.119)” value in the assay on PDGF-R was 14.0%.
In the same order, the values of `N#Cc1ccccc1C=C1C(=O)Nc2ccc(I)cc21` [10735/B07] are −5.9% and 0.5%.
With `O=C1Nc2ccc(I)cc2C1=Cc1c(F)cccc1F` [10735/B08], in the assay with FLK-1 receptor, the “Flk Kinase % Inhibition (P.110)” value was 1.6%. In addition, the “PDGF Kinase % Inhibition (P.119)” value in the assay with PDGF-R is on record as 9.8%.
For `O=C1Nc2ccc(I)cc2C1=Cc1cccc2ccccc12` [10735/B09] the same measures were 15.9% and −0.5%.
For `O=C1Nc2ccc(I)cc2C1=Cc1ccc(Cl)cc1Cl` [10735/B10] the same measures were 9.2% and 3.6%.
On to `O=C1Nc2ccc(I)cc2C1=Cc1ccc(-c2ccccc2)cc1` [10735/B11], for which the “Flk Kinase % Inhibition (P.110)” value with FLK-1 receptor was determined as 15.7%. Also, in the assay on PDGF-R, the “PDGF Kinase % Inhibition (P.119)” value was −8.8%.
For `Cc1ccccc1C=C1C(=O)Nc2ccc(Br)c(C)c21` [10735/C02] the same measures were 0.1% and 4.7%.
Consider `Cc1c(Br)ccc2c1C(=Cc1ccc(F)c(F)c1)C(=O)N2` [10735/C03], for which the “Flk Kinase % Inhibition (P.110)” value with FLK-1 receptor is recorded as 0.9%. In the assay on PDGF-R, the “PDGF Kinase % Inhibition (P.119)” value is listed as 4.3%.
For `Cc1c(Br)ccc2c1C(=Cc1cc(F)cc(F)c1)C(=O)N2` [10735/C04] the same measures were 17.2% and 12.9%.
In the same order, the values of `Cc1c(Br)ccc2c1C(=Cc1cccc(C(F)(F)F)c1)C(=O)N2` [10735/C05] are 11.2% and 20.5%.
For the compound `Cc1c(Br)ccc2c1C(=Cc1cc(C(F)(F)F)cc(C(F)(F)F)c1)C(=O)N2` [10735/C06], the “Flk Kinase % Inhibition (P.110)” value in the assay on FLK-1 receptor came to 18.2%. Further, the “PDGF Kinase % Inhibition (P.119)” value in the assay on PDGF-R is 25.0%.
As for `Cc1c(Br)ccc2c1C(=Cc1ccccc1C#N)C(=O)N2` [10735/C07], the “Flk Kinase % Inhibition (P.110)” value in the assay on FLK-1 receptor amounted to 9.6%. The “PDGF Kinase % Inhibition (P.119)” value with PDGF-R amounted to 11.9%.
For `Cc1c(Br)ccc2c1C(=Cc1c(F)cccc1F)C(=O)N2` [10735/C08] the same measures were 10.1% and −2.6%.
